Results taken from patent US10738074B2, “Cyclic di-nucleotide compounds as STING agonists” (Merck Sharp & Dohme Corp., priority 2015, dated 2020).

How the values were obtained:
THP1 cells = assay: IFN-β secretion in THP1 cell culture (5 h); assay type: cell-based, human; conditions: IFN-β secretion, THP1 cells, 5 h, 30 μM; for activation at 30 µM: Homo sapiens, THP-1, 5 h, read-out: % Effect at 30 μM relative to 2′3′-cGAMP
Method: The ability of compounds to stimulate the secretion of interferon-beta from THP1 cells was measured using a human IFN-β AlphaLISA kit (Perkin Elmer, Cat. No. AL265F). The basic protocol is as follows:
A Labcyte Echo 550 acoustic dispenser was used to transfer 120 nL of compound dissolved in DMSO into the wells of an empty, sterile 384-well microplate, (Corning, Cat. No. 3712). THP1 cells (American Type Culture Collection, Cat. No. TIB202) previously frozen in Recovery Medium (Life Technologies, Cat. No. 12648-010) were thawed and immediately diluted 10-fold into 37° C. assay medium (RPMI 1640+L-Glutamine & phenol red, Life Technologies, Cat. No. 11875-085; 0.5% heat inactivated fetal bovine serum, Sigma Aldrich, Cat. No. F4135; 1 mM Sodium Pyruvate, Life Technologies, Cat. No. 11360-070; lx non-essential amino acids; Life Technologies, Cat. No. 11140-050). The cell viability and count was ascertained using a Beckman Coulter V-Cell XR cell counter. The cells suspension was centrifuged at 200×g for 5 min at RT. Cells were resuspended to a density of 0.8×10^6/mL in 37° C. assay medium. Subsequent liquid transfers were performed using either a Matrix electronic multichannel pipette or an Agilent Bravo Automated Liquid Handling Platform.
The assay was started by dispensing 40 μL of the previously prepared cell suspension into the wells of the plate containing compounds. After 5 h incubation at 37° C., 5% CO2 in a humidified atmosphere, the plate of cells and compounds was centrifuged at 200×g for 5 min at RT. From each well, 5 μL of supernatant was transferred into corresponding wells of a white 384-well plate (Perkin Elmer, Cat. No. 6005620). To these supernatant-containing wells was added 10 μL of 5× Anti-Analyte Acceptor beads (50 μg/mL of AlphaLISA HiBlock Buffer) and incubated for 30 min at RT while shaking on an orbital plate shaker. To each well was added 10 μL of 5× Biotinylated Antibody Anti-analyte (5 nM in AlphaLISA HiBlock Buffer) and incubated on an orbital plate shaker for 60 min at RT or overnight at 4° C. To each well was added 25 μL of 2× SA-Donor beads (80 μg/mL in AlphaLISA HiBlock Buffer) and incubated for 30-45 min at RT in the dark while shaking on an orbital plate shaker. The plate was then read on a Perkin Elmer Envision (λex=680 nm, λem=[…]). The percent effect of the AlphaLISA signal at each compound concentration was calculated based on 30 uM cGAMP positive controls and 0.3% DMSO negative controls. The plot of percent effect versus the log of compound concentration was fit with a 4-parameter concentration response equation to calculate EC50 values. The test compounds were tested at concentrations 30000, 10000, 3333, 1111, 370.4, 123.4, 41.2, 13.7, 4.6, and 1.5 nM with 0.3% residual DMSO.
Compounds of the disclosure were evaluated for IFN-β secretion in THP1 cell culture as described above. The following table tabulates the biological data for these compounds as percent activation relative to 2′3′-cGAMP at the 30 μM concentration.

full-length WT STING = full-length WT STING (Homo sapiens (Human), UniProt Q86WV6, H232R); assay: 3H-cGAMP filtration binding assay (WT STING); conditions: competition with tritiated cGAMP, WT STING membrane
full-length WT STING, sequence (Q86WV6 other isoform, or with tags, fused parts or gaps H232R (already in the parent)): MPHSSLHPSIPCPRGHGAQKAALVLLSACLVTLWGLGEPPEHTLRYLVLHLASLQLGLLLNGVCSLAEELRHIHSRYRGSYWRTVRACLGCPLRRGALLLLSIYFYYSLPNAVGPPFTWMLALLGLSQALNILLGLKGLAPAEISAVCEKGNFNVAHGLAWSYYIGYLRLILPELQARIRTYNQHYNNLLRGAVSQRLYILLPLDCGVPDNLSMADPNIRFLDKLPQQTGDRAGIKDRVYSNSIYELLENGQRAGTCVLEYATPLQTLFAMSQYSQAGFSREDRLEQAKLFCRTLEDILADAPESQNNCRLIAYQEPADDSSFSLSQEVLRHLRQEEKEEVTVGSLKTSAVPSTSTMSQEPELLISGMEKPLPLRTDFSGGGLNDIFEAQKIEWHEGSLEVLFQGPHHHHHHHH
Source text: (§1) The ability of compounds to bind STING is quantified by their ability to compete with tritiated cGAMP ligand for human STING receptor membrane using a radioactive filter-binding assay. The binding assay employs STING receptor obtained from Trichoplusia ni cell membranes (Tni; Expression Systems, cat #94-002F, www.expressionsystems.com) overexpressing full-length WT STING prepared in-house and tritiated cGAMP ligand also purified in-house.
The basic WT STING filtration assay protocol is as follows:
The filter plates were then dried at 55° C. for 30 min using a pressurized VWR oven before 30 uL of Ultima GoldF scintillate was added to each well. Tritium levels for each reaction well were then measured using a PerkinElmer TopCount plate reader.
(§2) After normalization to controls, the percent activity for each compound concentration was calculated by measuring the amount of remaining radioactivity. The plot of percent activity versus the log of compound concentration was fit with a 4-parameter dose response equation to calculate EC50 values.

full-length HAQ STING = full-length HAQ STING (Homo sapiens (Human), UniProt Q86WV6, G230A/H232R/R293Q/R71H); assay: 3H-cGAMP filtration binding assay (HAQ STING); conditions: competition with tritiated cGAMP, HAQ STING membrane
full-length HAQ STING, sequence (Q86WV6 other isoform, or with tags, fused parts or gaps, stated change not applied): as the sequence (Q86WV6 other isoform, or with tags, fused parts or gaps H232R (already in the parent)) above, with R71H, G230A, R293Q counted along it
Source text: as §1, with “the” for “their”, “Hi-Five” for “Trichoplusia ni”, “membranes” for “membranes (Tni; Expression Systems, cat #94-002F, www.expressionsystems.com)”, “HAQ” for “WT”
as §1, with “www.exrpressionsystems.com)” for “www.expressionsystems.com)”, “HAQ” for “WT”
The basic HAQ STING filtration assay protocol is as follows:
Compound and membrane then preincubated for 60 min at RT to allow compound binding to equilibrate. Following equilibration, 8 nM of [^3H] c-GAMP ligand was prepared by diluting into assay buffer, and 50 uL of this working stock was then manually added to each well of the assay plate. […] The filter plates were then dried at 55° C. for 30 min using a pressurized VWR oven before 30 uL of Ultima GoldF scintillate was added to each well. Tritium levels for each reaction well were then measured using a PerkinElmer TopCount plate reader.
as §2

Nc1nc2c(ncn2[C@@H]2O[C@@H]3COP(O)(=S)O[C@@H]4[C@H](F)[C@@H](COP(O)(=S)O[C@@H]2[C@@H]3F)O[C@H]4n2cnc3c(=O)[nH]c(N)nc32)c(=O)[nH]1 (single isomer, unassigned) [Example 22]
% Effect at 30 μM relative to 2′3′-cGAMP (THP1 cells): 129%
EC50 (full-length WT STING): < 1 nM

Nc1nc2c(ncn2[C@@H]2O[C@@H]3COP(O)(=S)O[C@@H]4[C@H](F)[C@@H](COP(O)(=S)O[C@@H]2[C@@H]3F)O[C@H]4n2cnc3c(=O)[nH]c(N)nc32)c(=O)[nH]1 (single isomer, unassigned) [Example 23]
% Effect at 30 μM relative to 2′3′-cGAMP (THP1 cells): 135%
EC50 (full-length WT STING): 4 nM

Nc1nc2c(ncn2[C@@H]2O[C@@H]3COP(O)(=S)O[C@@H]4[C@H](F)[C@@H](COP(O)(=S)O[C@@H]2[C@@H]3F)O[C@H]4n2cnc3c(=O)[nH]c(N)nc32)c(=O)[nH]1 (single isomer, unassigned) [Example 24]
% Effect at 30 μM relative to 2′3′-cGAMP (THP1 cells): 84%
EC50 (full-length WT STING): 1.2 nM

Nc1nc2c(ncn2[C@@H]2O[C@@H]3COP(=O)(S)O[C@@H]4[C@@H](F)[C@@H](COP(=O)(S)O[C@@H]2[C@H]3F)O[C@H]4n2cnc3c(=O)[nH]c(N)nc32)c(=O)[nH]1 (stereo partly drawn) [Example 30, 9,9′-[(1S,6R,8R,9S,14R,16R,17S,18S)-17,18-difluoro-3,11-dioxido-3,11-disulfanyl-2,4,7,10,12,15-hexaoxa-3,11-diphosphatricyclo[12.2.1.1^6,9]octadecane-8,16-diyl]bis(2-amino-1,9-dihydro-6H-purin-6-one)]
activation at 30 µM (THP1 cells): 8%
EC50 (full-length WT STING): 7350 nM

Nc1nc2c(nnn2[C@@H]2O[C@@H]3COP(=O)(S)O[C@@H]4[C@H](F)[C@@H](COP(=O)(S)O[C@@H]2[C@@H]3F)O[C@H]4n2nnc3c(=O)[nH]c(N)nc32)c(=O)[nH]1 (stereo partly drawn) [Example 31, 3,3′-[(1S,6R,8R,9S,14R,16R,17R,18R)-17,18-difluoro-3,11-dioxido-3,11-disulfanyl-2,4,7,10,12,15-hexaoxa-3,11-diphosphatricyclo[12.2.1.1^6,9]octadecane-8,16-diyl]bis(5-amino-3,6-dihydro-7H-[1,2,3]triazolo[4,5-d]pyrimidin-7-one)]
activation at 30 µM (THP1 cells): 57%
EC50 (full-length WT STING): < 1 nM

Nc1nc2c(ncn2[C@H]2O[C@@H]3COP(=O)(O)O[C@@H]4[C@H](N)[C@@H](COP(=O)(O)O[C@@H]2[C@@H]3O)O[C@H]4n2cnc3c(N)ncnc32)c(=O)[nH]1 [Example 34]
EC50 (full-length HAQ STING): < 1 nM
% Effect at 30 μM relative to 2′3′-cGAMP (THP1 cells): 132%
EC50 (full-length WT STING): < 1 nM
